Laboratory results from patent US20250319095A1, “USE OF BENZO[…] INCREASE SENSITIVITY TO […] A CHRONIC SSRI REGIMEN” (Compass Pathfinder Limited, priority 2020, published 2025).
Where “and” joins values, the source holds several entries; their conditions need not be identical. Equal values may be shown once.

Key:
[1] = oral dose equivalence; cited from earlier work
male C57BL/6J mice = assay: Psilocybin head twitch response with chronic diazepam pre-treatment; format: in vivo
Protocol: Sixty-two (60 plus 2 spares;) male C57BL/6J mice (20-25 g upon arrival) were purchased from Charles River UK. Animals were group housed (in 3 s and a pair) in polypropylene cages. Mice were maintained on a normal phase 12 h light-dark cycle (lights on: 07:00-19:00 h) with free access to standard rodent maintenance diet (standard pelleted diet Envigo 2018) and filtered tap water. The holding room was maintained at a temperature of 21±4° C. and relative humidity was 55±15% with prolonged periods below 40% RH or above 70% RH avoided as detailed in the UK Code of Practice. As a refinement, each cage contained sawdust, sizzle nest, a red house, Perspex tunnel, plastic chew stick and a nestlet so that the mice can make nests and facilitate warmth. Mice were weighed upon arrival and provided with wet mash overnight. The following morning, mice were weighed, and the mash removed.
Mice were weighed and allocated into 6 treatment groups by a statistician (as per Table 20 below). […] For groups A-D animals were placed individually in clean cages with a light dusting of sawdust immediately following psilocybin administration (0.3 mg/kg, s.c) for head twitch response assessment. Head twitches were counted by a trained observer over a 30 minute period.
Statistical significance was tested using two-way analysis of variance with treatment and observer as cofactors (Table 21 below).

5HT2A = biological target: T1, 5HT2A (Mus musculus, UniProt P35363); assay: [3H]MDL100907 binding in frontal cortical membranes (5HT2A Kd and Bmax)
T1 construct: homogenates were prepared from frontal cortices sampled from groups E and F; from tissue; host or cells: mouse frontal cortex membranes (homogenate)
Protocol: To prepare the homogenate, frontal cortices from each animal were homogenized individually in 40 volumes (w/v) of ice cold assay buffer using a tight-fitting glass/Teflon homogenizer and centrifuged at 39,500×g for 10 min. The supernatant was discarded, and the pellet re-suspended in 40 volumes (w/v) of assay buffer and the tissue washed by centrifugation two more times. The final pellet was re-suspended in ice-cold assay buffer to 6.25 mg weight wet of tissue/ml and used immediately in the binding assay. Aliquots of final membrane preparations were also stored at −80 C until required for protein determination. All centrifugations will be carried out at 4° C.
To examine binding, the frontal cortical membranes (400 μl; equivalent to 2.5 mg wet weight of tissue/tube) were incubated with 50 μl of [3H] MDL 100907 (8 concentrations: 0.025, 0.05, 0.1, 0.2, 0.4, 0.8, 1.6, 3.2 nM) and either 50 μl of buffer (total binding) or 50 μl of 10 μM ketanserin (to define nonspecific binding) for 60 min at 25 C. […]
Membrane bound radioactivity was recovered by filtration under vacuum through Skatron 11731 filters, presoaked in 0.5% polyethylenimine (PEI) using a Skatron cell harvester. Filters were rapidly washed with ice cold wash buffer (wash setting 9,9,0) and radioactivity determined by liquid scintillation counting (1 ml Packard MV Gold scintillator). […]

T1 sequence (P35363 whole entry): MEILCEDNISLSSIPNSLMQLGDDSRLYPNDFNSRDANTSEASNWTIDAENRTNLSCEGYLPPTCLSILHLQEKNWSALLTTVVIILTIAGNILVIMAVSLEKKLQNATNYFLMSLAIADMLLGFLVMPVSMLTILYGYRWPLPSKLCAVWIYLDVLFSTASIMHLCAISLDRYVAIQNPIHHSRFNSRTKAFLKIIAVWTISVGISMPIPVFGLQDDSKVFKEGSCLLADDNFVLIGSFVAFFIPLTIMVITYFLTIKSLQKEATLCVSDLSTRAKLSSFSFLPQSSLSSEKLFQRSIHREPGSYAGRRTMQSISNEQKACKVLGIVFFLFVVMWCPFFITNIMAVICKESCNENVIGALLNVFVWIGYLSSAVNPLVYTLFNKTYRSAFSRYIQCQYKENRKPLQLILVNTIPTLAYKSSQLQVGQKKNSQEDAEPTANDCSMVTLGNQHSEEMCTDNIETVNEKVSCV

Row | Compound | Relative Potency [1] [mg] | other results
1 | Cc1nnc2n1-c1ccc(Cl)cc1C(c1ccccc1)=NC2 [Alprazolam, alprazolam] | 0.5 | 
2 | O=C1CN=C(c2ccccc2Cl)c2cc([N+](=O)[O-])ccc2N1 [Clonazepam, clonazepam] | 0.25 to 0.5 | 
3 | O=C(O)C1N=C(c2ccccc2)c2cc(Cl)ccc2NC1=O (stereo not drawn) [Clorazepate, clorazepate] | 7 | 
4 | CN1C(=O)CN=C(c2ccccc2)c2cc(Cl)ccc21 [Diazepam, diazepam] |  | psilocybin HTR, change with diazepam pretreatment (male C57BL/6J mice; 2 h post diazepam pretreatment): trend increase; HTR, change with diazepam pretreatment (male C57BL/6J mice; HTR at 10-15 and 20-25 minutes analyzed separately): significant increase; HTR, change with diazepam pretreatment (male C57BL/6J mice; over 30 minutes): trend increase; Bmax (fmoles/mg protein) (5HT2A): 271 fmoles/mg protein and 339 fmoles/mg protein and 334 fmoles/mg protein and 360 fmoles/mg protein and 314 fmoles/mg protein and 376 fmoles/mg protein; Bmax (pM) (5HT2A): 74.0 pM and 78.3 pM and 77.8 pM and 93.6 pM and 87.2 pM and 87.6 pM
5 | Clc1ccc2c(c1)C(c1ccccc1)=NCc1nncn1-2 [Estazolam, estazolam] | 0.5 to 1 | 
6 | CCN(CC)CCN1C(=O)CN=C(c2ccccc2F)c2cc(Cl)ccc21 [Flurazepam, flurazepam] | 10 | 
7 | O=C1Nc2ccc(Cl)cc2C(c2ccccc2Cl)=NC1O (stereo not drawn) [Lorazepam, lorazepam] | 1 | 
8 | Cc1ncc2n1-c1ccc(Cl)cc1C(c1ccccc1F)=NC2 [Midazolam, midazolam] | 3.3 | 
9 | Fc1ccccc1C1=NCC(=S)N(CC(F)(F)F)c2ccc(Cl)cc21 [Quazepam, quazepam] | 13 | 
10 | CN1C(=O)C(O)N=C(c2ccccc2)c2cc(Cl)ccc21 (stereo not drawn) [Temazepam, temazepam] | 10 | 
11 | Cc1nnc2n1-c1ccc(Cl)cc1C(c1ccccc1Cl)=NC2 [Triazolam, triazolam] | 0.25 | 
